Patent US20260152777A1, “METHOD FOR PRODUCING EPIGALLOCATECHIN GALLATE MONOGLUCOSIDE” (GIVAUDAN SA, priority 2022, published 2026)
Entries after “also recorded” stand apart in the source; their conditions may differ.

Experiments:
[1] = system: Asian volunteers with dull skin and large senescence spots; experiment: Clinical study: skin color analysis using Colorface (homogeneity, radiance, pigment defect); format: in vivo, human; details: for Pigment defect Mean +/− SD / Radiance Mean +/− SD / Pigment defect Average volume (mm^3) vs D 0 / Radiance Average variation (%) vs D 0: cream with 2% ascorbic acid, hemiface, Asian women; for pigment homogeneity, fold better than the placebo: vitamin C cream 2%
Text: For this study, volunteers applied the cream twice a day for 56 days. […]
Volunteers were divided into two groups as follows: • Group 1: 20 Asian women testing the active cream in comparison to the placebo cream with an average age of 54±5 years. • Group 2: 18 Asian women testing the vitamin C cream in comparison to the placebo cream with an average age of 53±8 years.
Volunteers applied a cream containing 0.4% of active, 2% of ascorbic acid (vitamin C), respectively, on one hemiface and a placebo cream on the other hemiface […] for 56 days.
During this study, a skin color and spots analysis was conducted using Colorface®, biomechanical properties were tested using Cutometery®, and the dermis thickness was determined using a DUB SkinScanner 75® probe (max. depth of 3.28 mm).
Skin color measurements were performed based on photos taken with the Colorface® acquisition system. Colorface® is a 2D acquisition system for taking standardized and multimodal photos of the entire face. The device is equipped with a 24M pixel sensor and also has a specific UV lamp. The acquisition methods are: UltraViolet, photo without filter, cross-polarized photo, parallel-polarized photo, standard 45° photo, and standard […].
An analysis of the radiance of the complexion, pigment spots, color (L*,a*,b* parameters) and melanin on the spots from photos using image analysis software was performed. 2D photos of the face were taken on D0, D28 and D56.

[2] = system: Lactobacillus acidophilus; experiment: Growth promotion of Lactobacillus acidophilus (OD600); format: cell-based; details: MRS broth 50% in PBS, 48 hours, anaerobic
Protocol: In order to further investigate the effect of the active of the present invention on bacteria, the growth of Lactobacillus acidophilus in MRS medium supplemented with different concentrations of EGCG MONOG was evaluated for 48 hours.
L. acidophilus (DSM 20079) was cultivated at 37° C. under anaerobic conditions on De Man, Rogosa Sharpe (MRS) agar. After bacterial amplification in culture medium, for each bacterial strain, a bacterial suspension was prepared using the assay medium (MRS broth 50% in PBS) and adjusted to an optical density at 600 nm (OD600 nm) of 0.2. The bacterial suspension was then transferred to 96-well plates, some of which contained the test compounds from 0.015% to 1%. The strain cultivated with powdered milk at 0.01% served as a positive control.
Bacterial cultures were incubated at 37° C. under agitation (˜280 rpm) and under anaerobic condition. OD600 nm were read in kinetic for 48 hours using a microplate spectrophotometer (EPOCH2, BioTek Instruments) to analyze the bacterial growth.
All experimental conditions were performed in triplicate.

[3] = system: melanogenesis pathway; details: 0.01% (v/v), 24 h, NHEK-NHEM co-culture, normalized to B2M
Protocol: To evaluate the impact of preparation of the present invention on melanogenesis, a co-culture study with keratinocytes and melanocytes was conducted.
The cell culture was realized with primary cells isolated from biopsies. Cells were co-cultured with a ratio of 10 keratinocytes to 1 melanocyte. Both cell types were derived from a donor.
The product EGCG MONOG 0.01% was filtered and diluted in Keratinocyte Growth Medium 2 (supplied by Promocell).
Cells were seeded in 6-well plates in the presence of the Keratinocyte Growth Medium 2 for 24 h. After seeding, a treatment in the presence of EGCG MONOG 0.01% was applied for 24 h. Untreated wells were used as a basal reference in order to compare the impact of EGCG MONOG and gene expression after 24 h of incubation.
After treatment, the RNA from the cells were extracted using TRIzol™ (available from Sigma) and reverse-transcribed into cDNA. The cDNA was mixed with different primers of interest representative of the melanogenesis pathway (PrimePCR custom plate, pigmentation, Biorad). The expression of the mRNA was measured by semi-quantitative PCR on a Bio-Rad CFX96Real Time PCR System (available from BioRAD). The expression level of the mRNA was calculated and normalized with reference gene (B2M).
The values were reported relative to the untreated control to express an activating or inhibitory effect.

[4] = system: female volunteers with a dark skin type (phototype IV or more) and dull skin; experiment: Clinical evaluation on African skin: skin color by Chromameter L* parameter; format: in vivo, human; details: cream 0.4%, full face twice daily; for increase of L* on uneven skin tone area: dark skin type
Protocol: The clinical study was carried out on 85 female volunteers aged from 19 to 47 years, which were divided in three groups: active, placebo and aglycone. The study was performed in South Africa on female volunteers with a dark skin type (phototype IV or more) and dull skin. All participants provided signed informed consent at the beginning of the study. The study was conducted according to the guidelines of the Declaration of Helsinki. […] Skin color evolution was measured after 14, 28 and 56 days using L* parameter measurement by Chromameter®.
The skin color was evaluated by means of a Chromameter CR400, which measures skin color, and the parameter L* (lightness) was recorded. The greater the value, the lighter the skin color. Depending on the test type, at least three or at least 15 readings were taken at each test sub-site for each time interval to serve as the specific pigmentation sport color measurement component of the study. Skin color was analyzed at D0, D14, D28 and D56.
For all studies in vivo, a Shapiro Wilk test was used to verify whether the raw data followed the Gaussian Law. In case of Normally-distributed data, the mean values were compared using either an unpaired or paired t student test. In case of non-Normally-distributed data, a Wilcoxon (paired) and Kruskal-Wallis test followed by a Mann-Whitney U (unpaired) test were used for paired data and unpaired data, respectively.

[5] = Skin penetration by Raman spectroscopy (ex vivo); format: in vitro ADME, human
Protocol: At the end of the incubation period, the skin explants were frozen in Optimal Cutting Temperature (OCT; VWR) at −80° C. and then cut longitudinally using a cryotome with a thickness of 20 μm. For each explant, 3 tissue sections were selected and deposited on a CaF2 support for Raman imaging analysis. The processing of corrected data maps was performed by using a software based on least squares fitting method that operates in the Matlab environment. This method involves mathematical modeling of reference spectra in the overall spectral image to determine the contribution and distribution of these spectra within the image. The reference spectra were the modelled spectra of the following products: Aglycone, glucoside mixture, 4′-O-α-monoglucoside and untreated skin control.

O=C1O[C@H]([C@@H](O)CO)C(O)=C1O [Ascorbic acid, ascorbic acid]
Pigment defect Mean +/− SD ([1]; D 0 (baseline)): 15660 ± 4532 arbitrary unit | Radiance Mean +/− SD ([1]; D 0 (baseline)): 72.3 ± 1.6 arbitrary unit | Pigment defect Average volume (mm^3) vs D 0 ([1]; D 28): −11.7% | Pigment defect Mean +/− SD ([1]; D 28): 13826 ± 4311 arbitrary unit | Radiance Average variation (%) vs D 0 ([1]; D 28): 0.7% | Radiance Mean +/− SD ([1]; D 28): 72.7 ± 1.9 arbitrary unit | Pigment defect Average volume (mm^3) vs D 0 ([1]; D 56): −16.5% | Pigment defect Mean +/− SD ([1]; D 56): 13078 ± 3731 arbitrary unit | Radiance Average variation (%) vs D 0 ([1]; D 56): 1.4% | Radiance Mean +/− SD ([1]; D 56): 73.3 ± 2.3 arbitrary unit | pigment homogeneity, fold better than the placebo ([1]; day 28): 1.6 fold | pigment homogeneity, fold better than the placebo ([1]; day 56): 1.8 fold

O=C(O[C@@H]1Cc2c(O)cc(O)cc2O[C@@H]1c1cc(O)c(O[C@H]2O[C@H](CO)[C@@H](O)[C@H](O)[C@H]2O)c(O)c1)c1cc(O)c(O)c(O)c1 [epigallocatechin gallate 4′-O-α-monoglucoside]
increase of growth of Lactobacillus acidophilus vs culture without EGCG MONOG ([2]; 0.13%): 6% | increase of growth of Lactobacillus acidophilus vs culture without EGCG MONOG ([2]; 0.4%): 9% | increase of growth of Lactobacillus acidophilus vs culture without EGCG MONOG ([2]; 1%): 27% | AP3B1 mRNA expression vs untreated co-culture [3]: −59% | DTNBP1 mRNA expression vs untreated co-culture [3]: −59% | EDNRB mRNA expression vs untreated co-culture [3]: −68% | F2RL1 mRNA expression vs untreated co-culture [3]: −49% | KIT mRNA expression vs untreated co-culture [3]: −93% | LYST mRNA expression vs untreated co-culture [3]: −48% | MC1R mRNA expression vs untreated co-culture [3]: −96% | MITF mRNA expression vs untreated co-culture [3]: −108% | PMEL mRNA expression vs untreated co-culture [3]: −212% | SOX10 mRNA expression vs untreated co-culture [3]: −60% | TYR mRNA expression vs untreated co-culture [3]: −58% | increase of L*, global skin color, 15 measurements on hemi face ([4]; dark skin type, 14, 28 and 56 days): up to +6.8% | increase of L* on uneven skin tone area ([4]; after 14 days): +1.3% | increase of L* on uneven skin tone area ([4]; after 28 days): +4.7% | increase of L* on uneven skin tone area ([4]; after 56 days): +6.3% | effect on pigment homogeneity, times more pronounced relative to the placebo ([1]; active cream 0.4%, after 28 days): 3.0 times | reduction of pigment defect (melanin content in pigmented spots area) compared to the placebo ([1]; active cream 0.4%, after 56 days): up to −21.7% | skin penetration higher than that of the aglycone ([5]; 2%, 8 hours of topical application, skin explants, relative to aglycone): +90% | skin penetration higher than that of the glucoside mixture ([5]; 2%, 8 hours of topical application, skin explants, relative to glucoside mixture): +20% | quantity accumulated in the skin relative to the aglycone ([5]; at depth of about 65 µm): almost double that of the aglycone | bioavailability in the skin ([5]; compared to aglycone (and glucoside mixture)): better skin bioavailability than the aglycone and the glucoside mixture; also recorded: much higher bioavailability in the skin than the respective aglycones | depth of accumulation in the skin / skin penetration depth ([5]; skin explants, Raman): about 65 µm
